Data: patent US20090181898A1, “ABUSE-RESISTANT A[…]” (SHIRE LLC, priority 2002, published 2009)

Assays:
rats [1] = experiment: Locomotor activity after intravenous administration; format: in vivo, Sprague-Dawley rats; settings: rat, 1.0 mg/kg
[2] = Intranasal bioavailability (LC/MS/MS); settings: rat, in vivo, other: intranasal, 3 mg/kg
[3] = target: T1, human recombinant dopamine transport binding sites (DAT) (Homo sapiens, UniProt Q01959); experiment: Radioligand binding assay, dopamine transporter (NovaScreen)
T1 construct: NovaScreen, Hanover, Md; (contract laboratory that ran the assay)
T1 sequence (Q01959 whole entry): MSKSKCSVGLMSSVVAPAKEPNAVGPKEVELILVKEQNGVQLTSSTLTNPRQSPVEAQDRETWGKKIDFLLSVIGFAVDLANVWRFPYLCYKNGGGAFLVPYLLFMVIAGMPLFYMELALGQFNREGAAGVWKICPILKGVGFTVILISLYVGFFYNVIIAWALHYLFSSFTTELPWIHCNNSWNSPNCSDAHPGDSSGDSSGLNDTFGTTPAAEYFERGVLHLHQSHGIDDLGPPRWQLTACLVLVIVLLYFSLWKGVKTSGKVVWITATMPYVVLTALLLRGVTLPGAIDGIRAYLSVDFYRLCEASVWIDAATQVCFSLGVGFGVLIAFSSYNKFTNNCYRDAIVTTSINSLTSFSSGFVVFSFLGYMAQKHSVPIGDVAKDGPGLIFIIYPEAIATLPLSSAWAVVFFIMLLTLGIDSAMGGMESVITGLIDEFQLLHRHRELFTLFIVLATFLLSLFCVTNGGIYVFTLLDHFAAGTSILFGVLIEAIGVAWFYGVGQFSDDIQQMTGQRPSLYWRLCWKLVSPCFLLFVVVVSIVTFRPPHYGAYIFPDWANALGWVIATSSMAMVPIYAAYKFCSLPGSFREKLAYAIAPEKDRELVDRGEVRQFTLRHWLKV

[4] = Oral bioavailability at escalating doses (LC/MS/MS); settings: rat; for AUC(0-inf): in vivo, po; for F (fraction of intact L-lysine-d-amphetamine absorbed): oral
rats [5] = experiment: Locomotor activity after intranasal administration with and without CMC; format: in vivo, Sprague-Dawley rats
Description: The CMC drug mixtures were suspended thoroughly before each dose was delivered.

rats [6] = experiment: Horizontal locomotor activity after oral administration; format: in vivo, Sprague-Dawley rats; settings: for Peak of activity (Counts per 0.2 h) / Time of Last Count Above 200 per 0.2 h / Total Activity Counts / Total Activity Counts Above Baseline: rats, oral gavage 6 mg/kg
stimulant abusers = experiment: Abuse liability of intravenous L-lysine-d-amphetamine in stimulant abusers; settings: IV
anesthetized dog = experiment: Cardiovascular effects following intravenous injection in the anesthetized dog
[7] = rats, intranasal 1.0 mg/kg, 1 h
[8] = L-lysine-d-amphetamine 50 mg, d-amphetamine 20 mg

Question: What does the source list for CC(Cc1ccccc1)NC(=O)C(N)CCCCN [L-lysine-d-amphetamine, 2,6-diaminohexanoic acid-(1-methyl-2-phenylethyl)-amide]?
Answer: Total Activity Counts (3 h) (rats [1]): 767; Activity above baseline, Percent Amp (rats [1]; 3 h): 34%; Total Activity Counts Above Baseline (rats [1]; 3 h): 463; concentration at 0 h [2]: 0 ng/mL; inhibition at 10 µM ([3]; 10^−5 mol/L): -0.71%; inhibition at 0.1 µM ([3]; 10^−7 mol/L): 11.5%; inhibition at 0.001 µM ([3]; 10^−9 mol/L): -10.5%; Specific binding to dopamine transport binding sites ([3]; 10^−9 to 10^−5 M): did not bind; Activity ([3]; DA Transporter, radioligand [3H]-WIN35428, 10^−9 to 10^−5 M): No (No activity is defined as producing between −20% and 20% inhibition of radioligand binding (Novascreen).); AUC(0-inf) ([4]; 3 mg/kg): 331 ng·h/mL; AUC(0-inf) ([4]; 6 mg/kg): 1180 ng·h/mL; AUC(0-inf) ([4]; 12 mg/kg): 5170 ng·h/mL; AUC(0-inf) ([4]; 60 mg/kg): 8460 ng·h/mL; F (fraction of intact L-lysine-d-amphetamine absorbed) ([4]; 3 mg/kg): 7.2%; F (fraction of intact L-lysine-d-amphetamine absorbed) ([4]; 6 mg/kg): 12.8%; F (fraction of intact L-lysine-d-amphetamine absorbed) ([4]; 12 mg/kg): 24.6%; F (fraction of intact L-lysine-d-amphetamine absorbed) ([4]; 60 mg/kg): 9.3%; Increase in activity over baseline compared to activity for d-amphetamine dosed animals (rats [5]; rat, intranasal, 1.0 mg/kg): 34%; Percent Amp (activity above baseline relative to Amp) (rats [5]; [7]): 35%; Total Activity Counts (1 h) (rats [5]; [7]): 408; Total Activity Counts Above Baseline (rats [5]; [7]): 237; Increase of total HLA activity counts over those induced by d-amphetamine (rats [6]; rat, oral, 6 mg/kg, three experiments (5, 8, 12 h)): 11-41%; Peak of activity (Counts per 0.2 h) (rats [6]; 5 h experiment): 318 Counts per 0.2 h; Time of Last Count Above 200 per 0.2 h (rats [6]; 5 h experiment): 5 h; Total Activity Counts (rats [6]; 5 h experiment): 6417; Total Activity Counts Above Baseline (rats [6]; 5 h experiment): 5902; Peak of activity (Counts per 0.2 h) (rats [6]; 12 h experiment): 256 Counts per 0.2 h; Time of Last Count Above 200 per 0.2 h (rats [6]; 12 h experiment): 8.6 h; Total Activity Counts (rats [6]; 12 h experiment): 8423; Total Activity Counts Above Baseline (rats [6]; 12 h experiment): 7487; Euphoria or amphetamine-like subjective effects (stimulant abusers; 50 mg): did not produce euphoria or amphetamine-like subjective effects; Mean maximum response on Subject Liking VAS vs placebo (stimulant abusers; [8]): not greater than placebo; Subjects (of 9) who would take the treatment again (stimulant abusers; [8]): one; Increase in mean BP (anesthetized dog; dog, IV, approximately 30 minutes after injection): 20-50%; DAP % Change (anesthetized dog; iv 0.5 mg/kg, Time 0): 0%; DAP diastolic arterial pressure (anesthetized dog; iv 0.5 mg/kg, Time 0): 51 mmHg; LVP % Change (anesthetized dog; iv 0.5 mg/kg, Time 0): 0%; LVP left ventricular pressure (anesthetized dog; iv 0.5 mg/kg, Time 0): 86 mmHg; MAP % Change (anesthetized dog; iv 0.5 mg/kg, Time 0): 0%; MAP mean arterial pressure (anesthetized dog; iv 0.5 mg/kg, Time 0): 64 mmHg; SAP % Change (anesthetized dog; iv 0.5 mg/kg, Time 0): 0%; SAP systolic arterial pressure (anesthetized dog; iv 0.5 mg/kg, Time 0): 84 mmHg; DAP % Change (anesthetized dog; iv 0.5 mg/kg, Time 5): 3%; DAP diastolic arterial pressure (anesthetized dog; iv 0.5 mg/kg, Time 5): 52 mmHg; LVP % Change (anesthetized dog; iv 0.5 mg/kg, Time 5): 2%; LVP left ventricular pressure (anesthetized dog; iv 0.5 mg/kg, Time 5): 87 mmHg; MAP % Change (anesthetized dog; iv 0.5 mg/kg, Time 5): 3%; MAP mean arterial pressure (anesthetized dog; iv 0.5 mg/kg, Time 5): 66 mmHg; SAP % Change (anesthetized dog; iv 0.5 mg/kg, Time 5): 4%; SAP systolic arterial pressure (anesthetized dog; iv 0.5 mg/kg, Time 5): 87 mmHg; DAP % Change (anesthetized dog; iv 0.5 mg/kg, Time 15): 1%; DAP diastolic arterial pressure (anesthetized dog; iv 0.5 mg/kg, Time 15): 51 mmHg; LVP % Change (anesthetized dog; iv 0.5 mg/kg, Time 15): 11%; LVP left ventricular pressure (anesthetized dog; iv 0.5 mg/kg, Time 15): 95 mmHg; MAP % Change (anesthetized dog; iv 0.5 mg/kg, Time 15): 5%; MAP mean arterial pressure (anesthetized dog; iv 0.5 mg/kg, Time 15): 67 mmHg; SAP % Change (anesthetized dog; iv 0.5 mg/kg, Time 15): 11%; SAP systolic arterial pressure (anesthetized dog; iv 0.5 mg/kg, Time 15): 93 mmHg; DAP % Change (anesthetized dog; iv 0.5 mg/kg, Time 25): 8%; DAP diastolic arterial pressure (anesthetized dog; iv 0.5 mg/kg, Time 25): 55 mmHg; LVP % Change (anesthetized dog; iv 0.5 mg/kg, Time 25): 22%; LVP left ventricular pressure (anesthetized dog; iv 0.5 mg/kg, Time 25): 105 mmHg; MAP % Change (anesthetized dog; iv 0.5 mg/kg, Time 25): 15%; MAP mean arterial pressure (anesthetized dog; iv 0.5 mg/kg, Time 25): 73 mmHg; SAP % Change (anesthetized dog; iv 0.5 mg/kg, Time 25): 25%; SAP systolic arterial pressure (anesthetized dog; iv 0.5 mg/kg, Time 25): 104 mmHg; DAP % Change (anesthetized dog; iv 0.5 mg/kg, Time 30): 14%; DAP diastolic arterial pressure (anesthetized dog; iv 0.5 mg/kg, Time 30): 58 mmHg; LVP % Change (anesthetized dog; iv 0.5 mg/kg, Time 30): 26%; LVP left ventricular pressure (anesthetized dog; iv 0.5 mg/kg, Time 30): 108 mmHg; MAP % Change (anesthetized dog; iv 0.5 mg/kg, Time 30): 21%; MAP mean arterial pressure (anesthetized dog; iv 0.5 mg/kg, Time 30): 77 mmHg; SAP % Change (anesthetized dog; iv 0.5 mg/kg, Time 30): 28%; SAP systolic arterial pressure (anesthetized dog; iv 0.5 mg/kg, Time 30): 107 mmHg; DAP % Change (anesthetized dog; iv 1.0 mg/kg, Time 0): 0%; DAP diastolic arterial pressure (anesthetized dog; iv 1.0 mg/kg, Time 0): 55 mmHg; LVP % Change (anesthetized dog; iv 1.0 mg/kg, Time 0): 0%
